Test results reported in ChEMBL document CHEMBL4261633, “Butenolides from a marine-derived fungus Aspergillus terreus with antitumor activities against pancreatic ductal adenocarcinoma cells” (Bioorg Med Chem, 2018).
Values belong to the compound of their own block, whether it stands above or below them. Calls of active or inactive are those of the source. The rule behind the calls is not given here.

Legend:
PANC-1 [1] = assay: Induction of apoptosis in human PANC1 cells assessed as nuclear chromatin condensation at 5 uM after 24 hrs by Hoechst 33258 staining based fluorescence microscopic analysis; format: functional, cell-based
PANC-1 [2] = assay: Induction of apoptosis in human PANC1 cells assessed as viable cells at 15 uM after 24 hrs by FITC-Annexin V/propidium iodide staining-based flow cytometric analysis (reference value: 94.7 to 98.7%); format: functional; settings: PANC-1, 24 h, read-out: Activity
PANC-1 [3] = assay: Cell cycle arrest in human PANC1 cells assessed as accumulation at S phase at 15 uM after 24 hrs by RNAase/propidium iodide staining-based flow cytometric analysis (reference value: 11.66 to 19.02%); format: functional
PANC-1 [4] = assay: Cell cycle arrest in human PANC1 cells assessed as accumulation at S phase at 5 uM after 24 hrs by RNAase/propidium iodide staining-based flow cytometric analysis (reference value: 11.66 to 19.02%); format: functional
PANC-1 [5] = assay: Induction of apoptosis in human PANC1 cells assessed as early apoptotic cells at 15 uM after 24 hrs by FITC-Annexin V/propidium iodide staining-based flow cytometric analysis (reference value: 0.5 to 3.2%); format: functional
PANC-1 [6] = assay: Induction of apoptosis in human PANC1 cells assessed as nuclear fragmentation at 25 uM after 24 hrs by Hoechst 33258 staining based fluorescence microscopic analysis; format: functional, cell-based
PANC-1 [7] = assay: Induction of apoptosis in human PANC1 cells assessed as nuclear shrinkage at 5 uM after 24 hrs by Hoechst 33258 staining based fluorescence microscopic analysis; format: functional, cell-based
PANC-1 [8] = assay: Induction of apoptosis in human PANC1 cells assessed as necrotic cells at 15 uM after 24 hrs by FITC-Annexin V/propidium iodide staining-based flow cytometric analysis (reference value: 0.7 to 1.4%); format: functional
PANC-1 [9] = assay: Cell cycle arrest in human PANC1 cells assessed as accumulation at G2/M phase at 5 uM after 24 hrs by RNAase/propidium iodide staining-based flow cytometric analysis (reference value: 6.83 to 11.82%); format: functional
PANC-1 [10] = assay: Antiproliferative activity against human PANC1 cells after 24 hrs by CCK8 assay; format: functional, cell-based; settings: PANC-1, 24 h
HCC1806 = assay: Antiproliferative activity against human HCC1806 cells after 24 hrs by CCK8 assay; format: functional, cell-based; settings: HCC1806, 24 h
PANC-1 [11] = assay: Induction of apoptosis in human PANC1 cells assessed as viable cells at 25 uM after 24 hrs by FITC-Annexin V/propidium iodide staining-based flow cytometric analysis (reference value: 94.7 to 98.7%); format: functional; settings: PANC-1, 24 h, read-out: Activity
PANC-1 [12] = assay: Induction of apoptosis in human PANC1 cells assessed as late apoptotic cells at 5 uM after 24 hrs by FITC-Annexin V/propidium iodide staining-based flow cytometric analysis (reference value: 0.0 to 0.7%); format: functional
PANC-1 [13] = assay: Induction of apoptosis in human PANC1 cells assessed as necrotic cells at 25 uM after 24 hrs by FITC-Annexin V/propidium iodide staining-based flow cytometric analysis (reference value: 0.7 to 1.4%); format: functional
PANC-1 [14] = assay: Cell cycle arrest in human PANC1 cells assessed as accumulation at G1 phase at 10 uM after 24 hrs by RNAase/propidium iodide staining-based flow cytometric analysis (reference value: 67.93 to 75.87%); format: functional
PANC-1 [15] = assay: Induction of apoptosis in human PANC1 cells assessed as late apoptotic cells at 25 uM after 24 hrs by FITC-Annexin V/propidium iodide staining-based flow cytometric analysis (reference value: 0.0 to 0.7%); format: functional
PANC-1 [16] = assay: Induction of apoptosis in human PANC1 cells after 24 hrs by FITC-Annexin V/propidium iodide staining-based flow cytometric analysis; format: functional, cell-based
PANC-1 [17] = assay: Cell cycle arrest in human PANC1 cells assessed as accumulation at S phase at 25 uM after 24 hrs by RNAase/propidium iodide staining-based flow cytometric analysis (reference value: 11.66 to 19.02%); format: functional
HT-29 = assay: Antiproliferative activity against human HT-29 cells after 24 hrs by CCK8 assay; format: functional, cell-based; settings: HT-29, 24 h
PANC-1 [18] = assay: Cell cycle arrest in human PANC1 cells assessed as accumulation at G1 phase at 15 uM after 24 hrs by RNAase/propidium iodide staining-based flow cytometric analysis (reference value: 67.93 to 75.87%); format: functional
PANC-1 [19] = assay: Induction of apoptosis in human PANC1 cells assessed as viable cells at 10 uM after 24 hrs by FITC-Annexin V/propidium iodide staining-based flow cytometric analysis (reference value: 94.7 to 98.7%); format: functional; settings: PANC-1, 24 h, read-out: Activity
PANC-1 [20] = assay: Induction of apoptosis in human PANC1 cells assessed as nuclear chromatin condensation at 25 uM after 24 hrs by Hoechst 33258 staining based fluorescence microscopic analysis; format: functional, cell-based
PANC-1 [21] = assay: Cell cycle arrest in human PANC1 cells assessed as accumulation at S phase at 10 uM after 24 hrs by RNAase/propidium iodide staining-based flow cytometric analysis (reference value: 11.66 to 19.02%); format: functional
PANC-1 [22] = assay: Induction of apoptosis in human PANC1 cells assessed as nuclear fragmentation at 5 uM after 24 hrs by Hoechst 33258 staining based fluorescence microscopic analysis; format: functional, cell-based
PANC-1 [23] = assay: Cell cycle arrest in human PANC1 cells assessed as accumulation at G2/M phase at 25 uM after 24 hrs by RNAase/propidium iodide staining-based flow cytometric analysis (reference value: 6.83 to 11.82%); format: functional
HepG2 = assay: Antiproliferative activity against human HepG2 cells after 24 hrs by CCK8 assay; format: functional, cell-based; settings: HepG2, 24 h
PANC-1 [24] = assay: Induction of apoptosis in human PANC1 cells assessed as late apoptotic cells at 15 uM after 24 hrs by FITC-Annexin V/propidium iodide staining-based flow cytometric analysis (reference value: 0.0 to 0.7%); format: functional
PANC-1 [25] = assay: Induction of apoptosis in human PANC1 cells assessed as early apoptotic cells at 10 uM after 24 hrs by FITC-Annexin V/propidium iodide staining-based flow cytometric analysis (reference value: 0.5 to 3.2%); format: functional
PANC-1 [26] = assay: Cell cycle arrest in human PANC1 cells assessed as accumulation at G2/M phase at 10 uM after 24 hrs by RNAase/propidium iodide staining-based flow cytometric analysis (reference value: 6.83 to 11.82%); format: functional
PANC-1 [27] = assay: Induction of apoptosis in human PANC1 cells assessed as nuclear shrinkage at 25 uM after 24 hrs by Hoechst 33258 staining based fluorescence microscopic analysis; format: functional, cell-based
BEAS-2B = assay: Antiproliferative activity against human BEAS2B cells after 24 hrs by CCK8 assay; format: functional, cell-based
PANC-1 [28] = assay: Cell cycle arrest in human PANC1 cells assessed as accumulation at G2/M phase at 15 uM after 24 hrs by RNAase/propidium iodide staining-based flow cytometric analysis (reference value: 6.83 to 11.82%); format: functional
PANC-1 [29] = assay: Induction of apoptosis in human PANC1 cells assessed as necrotic cells at 5 uM after 24 hrs by FITC-Annexin V/propidium iodide staining-based flow cytometric analysis (reference value: 0.7 to 1.4%); format: functional
PANC-1 [30] = assay: Induction of apoptosis in human PANC1 cells assessed as early apoptotic cells at 5 uM after 24 hrs by FITC-Annexin V/propidium iodide staining-based flow cytometric analysis (reference value: 0.5 to 3.2%); format: functional
PANC-1 [31] = assay: Induction of apoptosis in human PANC1 cells assessed as late apoptotic cells at 10 uM after 24 hrs by FITC-Annexin V/propidium iodide staining-based flow cytometric analysis (reference value: 0.0 to 0.7%); format: functional
PANC-1 [32] = assay: Induction of apoptosis in human PANC1 cells assessed as early apoptotic cells at 25 uM after 24 hrs by FITC-Annexin V/propidium iodide staining-based flow cytometric analysis (reference value: 0.5 to 3.2%); format: functional
PANC-1 [33] = assay: Cell cycle arrest in human PANC1 cells assessed as accumulation at G1 phase at 25 uM after 24 hrs by RNAase/propidium iodide staining-based flow cytometric analysis (reference value: 67.93 to 75.87%); format: functional
PANC-1 [34] = assay: Induction of apoptosis in human PANC1 cells assessed as necrotic cells at 10 uM after 24 hrs by FITC-Annexin V/propidium iodide staining-based flow cytometric analysis (reference value: 0.7 to 1.4%); format: functional
PANC-1 [35] = assay: Induction of apoptosis in human PANC1 cells assessed as viable cells at 5 uM after 24 hrs by FITC-Annexin V/propidium iodide staining-based flow cytometric analysis (reference value: 94.7 to 98.7%); format: functional; settings: PANC-1, 24 h, read-out: Activity
PANC-1 [36] = assay: Cell cycle arrest in human PANC1 cells assessed as accumulation at G1 phase at 5 uM after 24 hrs by RNAase/propidium iodide staining-based flow cytometric analysis (reference value: 67.93 to 75.87%); format: functional

IC50 (PANC-1 [10]): 5.3 µM
IC50 (HCC1806): 17.6 µM
IC50 (HT-29): > 20 µM
IC50 (HepG2): 9 µM
Compound: COC(=O)[C@]1(Cc2ccc(O)c(CC=C(C)C)c2)OC(=O)C(O)=C1c1ccc(O)c(CC=C(C)C)c1
Activity (PANC-1 [1]): Active
viability at 15 µM (PANC-1 [2]): 49.1%
Activity (PANC-1 [3]): 38.47%
Activity (PANC-1 [4]): 35.11%
Activity (PANC-1 [5]): 48.5%
Activity (PANC-1 [6]): Active
Activity (PANC-1 [7]): Active
Activity (PANC-1 [8]): 1.6%
Activity (PANC-1 [9]): 14.43%
viability at 25 µM (PANC-1 [11]): 44.5%
Activity (PANC-1 [12]): 0.3%
Activity (PANC-1 [13]): 1.3%
Activity (PANC-1 [14]): 45.36%
Activity (PANC-1 [15]): 11.6%
Activity (PANC-1 [16]): Dose-dependent effect
Activity (PANC-1 [17]): 41.26%
Activity (PANC-1 [18]): 20.44%
viability at 10 µM (PANC-1 [19]): 87.9%
Activity (PANC-1 [20]): Active
Activity (PANC-1 [21]): 38.96%
Activity (PANC-1 [22]): Active
Activity (PANC-1 [23]): 35.78%
Activity (PANC-1 [24]): 0.7%
Activity (PANC-1 [25]): 9.3%
Activity (PANC-1 [26]): 10.09%
Activity (PANC-1 [27]): Active
IC50 (BEAS-2B): > 20 µM
Activity (PANC-1 [28]): 38.12%
Activity (PANC-1 [29]): 0.2%
Activity (PANC-1 [30]): 4.8%
Activity (PANC-1 [31]): 1.2%
Activity (PANC-1 [32]): 42.7%
Activity (PANC-1 [33]): 20.46%
Activity (PANC-1 [34]): 1.6%
viability at 5 µM (PANC-1 [35]): 94.7%
Activity (PANC-1 [36]): 49.89%

IC50 (PANC-1 [10]): > 20 µM
IC50 (HCC1806): > 20 µM
IC50 (HT-29): > 20 µM
IC50 (HepG2): > 20 µM
Compound: CC(C)(O)C1Cc2cc(C[C@H]3OC(=O)C(O)=C3c3ccc(O)cc3)ccc2O1 (some centres undefined)
IC50 (BEAS-2B): > 20 µM

IC50 (PANC-1 [10]): 0.04 µM
IC50 (HCC1806): 0.001 µM
IC50 (HepG2): 0.009 µM
Compound: CC(=O)O[C@H]1C(=O)[C@@]2(C)[C@H]([C@H](OC(=O)c3ccccc3)[C@]3(O)C[C@H](OC(=O)[C@H](O)[C@@H](NC(=O)c4ccccc4)c4ccccc4)C(C)=C1C3(C)C)[C@]1(OC(C)=O)CO[C@@H]1C[C@@H]2O [PACLITAXEL]
IC50 (BEAS-2B): 0.007 µM

Second part, the compound before the results:

Compound: COC(=O)[C@]1(Cc2ccc(O)c(CC=C(C)C)c2)OC(=O)C(O)=C1c1ccc(O)cc1
IC50 (PANC-1 [10]): > 20 µM
IC50 (HCC1806): > 20 µM
IC50 (HT-29): > 20 µM
IC50 (HepG2): > 20 µM
IC50 (BEAS-2B): > 20 µM

Compound: COC(=O)[C@]1(Cc2ccc(O)c(CC3OC3(C)C)c2)OC(=O)C(O)=C1c1ccc(O)cc1 (some centres undefined)
IC50 (PANC-1 [10]): > 20 µM
IC50 (HCC1806): > 20 µM
IC50 (HT-29): > 20 µM
IC50 (HepG2): > 20 µM
IC50 (BEAS-2B): > 20 µM

Compound: COC(=O)[C@]1(Cc2ccc(O)c(C[C@@H](O)C(C)C)c2)OC(=O)C(O)=C1c1ccc(O)cc1
IC50 (PANC-1 [10]): > 20 µM
IC50 (HCC1806): > 20 µM
IC50 (HT-29): > 20 µM
IC50 (HepG2): > 20 µM
IC50 (BEAS-2B): > 20 µM
